# Patent publication US20070129307A1, “Insulin epitopes for the treatment of type 1 diabetes” (The University of British Columbia, priority 2001, published 2007)
# “Also recorded” adds a separate entry of the source.
# Tests used:
# HLA-A*0201 [1] = molecular target: T1, HLA-A*0201 (Homo sapiens, UniProt P04439, D140Y/D185E/D98H/E176V/E277Q/G131W/G231S/I119V/I121R/I166T/I218V/L300P/L318F/N151K/N90K/P208A/P217A/Q86G/Q94H/R138H/R169H/T345S); experiment: Temporal stability (dissociation) of peptide/HLA-A*0201 complexes on T2 cells; format: binding; conditions: in 4 hours at 37° C., T2 cells with emetine, normalized to CMV/HLA-A2
# T1 construct: cell membrane stabilization of the HLA-A2 molecule in TAP-deficient 174×CEM.T2 cells; endogenous in cells; host or cells: 174×CEM.T2 (T2) cells, TAP-deficient
# Protocol: The stability of complexes formed with the peptides and HLA-A2 on T2 cells was assessed, over a 4-hour period at 37° C. After peptide removal and addition of emetine to inhibit protein synthesis, T2 cells were cultured at 37° C. and the HLA-A2 expression was determined at different incubation times using anti-HLA-A2 antibody. The stability of the various peptide/HLA-A2 complexes were then normalized relative to that observed for CMV/HLA-A2 complexes set as 100%.
# The temporal stability of peptide/HLA-A*0201 complexes was assessed as previously described (Valmori, supra). Briefly, T2 cells were cultured with synthetic peptides overnight at room temperature as performed for peptide binding assay. The following day, after removing peptide and adding emetine (10^−4 M; Sigma-Aldrich, Oakville, Ontario, Canada) to block protein synthesis, cells were incubated at 37° C. for the indicated time periods. At each time point, an aliquot of cells was washed and stained with FITC-conjugated anti-HLA-A2 monoclonal antibody (BB7.2). Surface HLA-A2 expression was assessed by flow cytometry (FACSCalibur) and MFI was recorded. The CMV peptide was used as a positive control. Results are expressed as relative complex stability =100×[(MFI with given peptide—MFI without peptide)/(MFI with CMV peptide—MFI without peptide)].
# [2] = system: HLA-A2 restricted CD8+ T cells (PBMC); conditions: for T cell responses in diabetic patients and controls: non-diabetic and non-HLA matched controls
# NOD mice = experiment: Peptide immunisation of NOD mice, diabetes onset; format: in vivo, mouse; conditions: by week 18; 100 μg peptide intraperitoneally from 3 weeks of age; diabetic = two consecutive blood sugars >15 mM
# Protocol: Peptides are administered to female NOD mice in accordance with standard laboratory methods.
# Three groups of NOD mice (n=10 per group, purchased from Taconic, Germantown, N.Y., U.S.A.) were immunised beginning at three weeks of age with 100 μg of TUM, NRP-A7, or TV1 (MTV-1) peptide in PBS solution, intraperitoneally once per week for two weeks, then once every two weeks. Mice were monitored for hyperglycaemia weekly and considered to be diabetic after two consecutive blood sugars >15 mM.
# [3] = system: murine autoreactive T cells (NOD spleen cells); experiment: Interferon-gamma ELISPOT with NOD spleen cells; format: cell-based, mouse
# Description: The effector cells (CTL) of the ELISPOT assay are contained within spleen cells from NOD mice aged 10 weeks. The spleens from these mice contain a proportion of autoreactive CTL destined to destroy pancreatic beta cells.
# The peptide NRP-V7 was used as a positive control and is a previously described synthetic autoepitope (automimotope) of NOD mice (Amrani et al., 2000). NRP-V7 was not derived from any endogenous mammalian protein sequence but was identified by screening combinatorial peptide libraries. The peptide TUM was used as a negative control. TUM is derived from an endogenous tumour peptide not known to participate in type 1 diabetes but known to bind to the MHC class I molecule, H-2Kd.
# H-2Kd = molecular target: T2, H-2Kd (Mus musculus, UniProt P01902); experiment: MHC class I stabilization assay on RMAS-Kd cells (FACS); format: binding; conditions: background without peptide 6.07%
# T2 construct: expressed in transfected cells; host or cells: RMAS (TAP-deficient murine cell line) transfected with H-2Kd
# T2 sequence (P01902 22-368): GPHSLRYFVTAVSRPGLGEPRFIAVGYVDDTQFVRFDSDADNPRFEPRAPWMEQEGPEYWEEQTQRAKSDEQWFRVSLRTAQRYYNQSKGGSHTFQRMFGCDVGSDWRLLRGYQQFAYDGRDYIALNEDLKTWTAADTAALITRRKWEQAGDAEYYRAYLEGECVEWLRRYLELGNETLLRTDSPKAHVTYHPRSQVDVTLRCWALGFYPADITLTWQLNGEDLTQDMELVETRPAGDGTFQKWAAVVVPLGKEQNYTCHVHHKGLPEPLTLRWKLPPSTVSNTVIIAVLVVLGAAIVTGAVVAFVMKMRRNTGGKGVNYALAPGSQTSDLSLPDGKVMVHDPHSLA
# T2 sequence (P01887 21-119 partner): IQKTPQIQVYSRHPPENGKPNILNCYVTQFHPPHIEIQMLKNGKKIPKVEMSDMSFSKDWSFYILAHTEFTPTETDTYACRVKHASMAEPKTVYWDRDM
# Protocol: A peptide (for example, TUM, V7, INSL, TV1, TV2, or TV3) is added and the cells are incubated at room temperature for 1 hour, and then incubated at 37° C. for 3 hours. The cells are washed 3 times with 0.3% bovine serum albumin-phosphate buffer solution (BSA-PBS), and then stained with fluorescently labelled anti-mouse H-2Kd-FITC antibody. Fluorescent-activated cell sorting (FACS) analysis is performed to count the percentage of cells showing positive staining.
# FACS analysis was performed to quantify the percentage/proportion of antigen presenting cells (RMAS-Kd) that express stable MHC class I on their cell surface, in association with the TV1 peptide. RMAS-Kd is a transporter for antigen presentation (TAP)-deficient RMAS cell line transfected with the mouse MHC class I molecule, H-2Kd. Because the cell line is TAP deficient it cannot assemble MHC class I (in this case H-2Kd) complexes stably but requires surface stabilisation by exogenous peptides that can bind with the H-2Kd heavy chain and beta-2 microglobulin. The cell line was stained for MHC class I expression with or without TV1 peptide.
# HLA-A*0201 [4] = molecular target: T1, HLA-A*0201; experiment: FACS assay of peptide binding to HLA-A2 on T2 cells (Example 6)
# [5] = system: human autoreactive T cells (PBMC); experiment: Interferon gamma ELISPOT of PBMC from type 1 diabetes patients (Example 5); format: cell-based; conditions: 1 μM peptide, PBMC 20,000 per well, recent onset type 1 diabetes patients, FIG. 8
# [6] = system: autoreactive T cells in NOD pancreatic islets; experiment: Interferon-gamma ELISPOT with T cells of NOD pancreatic islets; format: cell-based, mouse; conditions: FIG. 5
# [7] = system: CTL from pancreatic islets of NOD mice; experiment: H-2Kd tetramer staining of NOD islet cells; format: cell-based, mouse; conditions: H-2Kd tetramers, islet cells ex vivo or after in vitro culture, FIG. 12
# Description: MHC class I tetramers (for example, H-2Kd tetrameric complexes) are synthesised as previously described by Altman et al. (Science 274:94-96, 1996). MHC heavy chain, modified by the addition of a C-terminal biotinylation site, and beta 2 microglobulin are expressed separately in E. coli (BL21, Stratagene, La Jolla, Calif., U.S.A.). Peptides were synthesized synthesised on a Perkin-Elmer-ABI 431A by the NAPS Unit, University of British Columbia, BC, Canada. Purified heavy chain, beta 2 microglobulin and peptide are refolded at 4° C. for 48 hours in a TRIS-based buffer, and the refolded product is concentrated, biotinylated using BirA enzyme (Avidity, Denver, Colo., U.S.A.) in the presence of biotin, ATP and Mg++ and purified by FPLC. Streptavidin-phycoerythrin conjugate is added in a 1:4 molar ratio and the tetrameric product is concentrated to approximately 1 mg/ml. The tetramer concentration is calculated based upon the concentration of biotinylated protein, quantified by Bradford assay, prior to addition of streptavidin.
# Single cell suspensions of lymphocytes are incubated with 1 μl of a 1 mg/ml solution of MHC tetramer for 2-3 hours at 4° C. in FACS staining buffer (HBSS/FBS 2%/Sodium Azide 0.01%/EDTA 100 mM). The cells are centrifuged and washed three times before staining with antibody to CD8. […]
substance,measurement,setting,value
ALWMRLLPL [Insulin2],dissociation of peptide/HLA-A2 complexes,HLA-A*0201 [1],about 20%
same,non-diabetic control subjects that responded,[2]; second study,three of the five
"DLMGYIPLV [HCV, reference compound]",subjects responding to the peptide,"[2]; first study, all subjects",None of the subjects responded
GMAELMAGL [Phogrin331],dissociation of peptide/HLA-A2 complexes,HLA-A*0201 [1],about 20%
same,T cell responses in diabetic patients and controls,[2]; second study,could not be detected
KLPAVLLIL (mTV-1 peptide epitope) [TV1],immunized mice considered diabetic,NOD mice,80%
same,recognition by murine autoreactive T cells (interferon-gamma secretion),[3]; FIG. 1,recognise
same,recognition by murine autoreactive T cells (interferon-gamma secretion),"[3]; FIG. 1, listed as TV-1",high frequency of CTL that recognise TV-1
same,proportion of H-2Kd on the surface of the APC in the presence of peptide,H-2Kd,64%
KLQVFLIVL (HTV-1 peptide epitope) [IAPP5],binding to HLA-A2,"HLA-A*0201 [4]; FIG. 11, listed as HTV 1",bind to HLA-A2
same,binding to HLA-A2,"HLA-A*0201 [4]; FIG. 11, listed as HTV1",binds
same,recognition by human autoreactive T cells (interferon-gamma ELISPOT),[5],elevated HTV1 autoreactivity; also recorded: recognise
"KYNKANVFL [NRP-V7, positive control]",interferon-gamma secretion by autoreactive T cells in NOD pancreatic islets,[6],secrete interferon-gamma
same,recognition by murine autoreactive T cells (interferon-gamma secretion),[3]; FIG. 1,Interferon-gamma is also secreted; also recorded: recognise
same,proportion of H-2Kd on the surface of the APC in the presence of peptide,H-2Kd,72%
same,proportion of H-2Kd on the surface of the APC in the presence of peptide,H-2Kd; listed as V7,72.71%
KYPAVLLIL (modified version of precursor peptide TV1 (TV2)),recognition by CD8+ T cells (tetramer staining),[7],recognize
same,proportion of H-2Kd on the surface of the APC in the presence of peptide,H-2Kd,58%
LLPPLLEHL [IA-2(180)],T cell responses in diabetic patients and controls,[2]; second study,could not be detected
LYLVCGERG [INSL],interferon-gamma secretion by autoreactive T cells in NOD pancreatic islets,[6],minimally
same,proportion of H-2Kd on the surface of the APC in the presence of peptide,H-2Kd,73.68%
same,proportion of H-2Kd on the surface of the APC in the presence of peptide,H-2Kd; listed as INS-L,73%
NRP-A7: positive control peptide; known synthetic peptide autoantigen recognized in the context of H-2Kd (KYNKANAFL; NRP-A7 peptide),immunized mice considered diabetic,NOD mice,20%
RLLCALTSL [IGRP293],dissociation of peptide/HLA-A2 complexes,HLA-A*0201 [1],about 20%
same,T cell responses in diabetic patients and controls,[2]; second study,could not be detected
RLLPLLALL (mouse insulin derived peptide) [TV3],proportion of H-2Kd on the surface of the APC in the presence of peptide,H-2Kd,70%
"TUM: negative control; derived from an endogenous tumour peptide, known to bind H-2Kd (KYQAVTTTL)",immunized mice considered diabetic,NOD mice,none
same,proportion of H-2Kd on the surface of the APC in the presence of peptide,H-2Kd,66%
